≈ marks a conversion by molar mass, not a printed value. Like-named read-outs stand apart in the source and are kept apart here.
Columns and labels:
Microbacterium otitidis = test: In vitro activity (MIC) by agar and broth dilution methods against clinical isolates; type: cell-based; details: for MIC: read-out: minimum inhibitory concentration (MIC)
Procedure: (§1) The activity levels were determined as MIC (minimum inhibitory concentration) values. In order to compare the activity of the compounds of the present invention to other antibiotics, MIC values for representatives quinolones, aminoglycosides, β-lactams and other types of antibiotics were also determined. […] The MCC numbers (e.g., “MCC 10647”) represent separate clinical isolates of the two Microbacterium species tested.

Microbacterium alconae = test: as above; type: cell-based; details: for MIC: read-out: minimum inhibitory concentration (MIC)
Procedure: as §1

M. otitidis = test: MIC90 of Moxifloxacin for bacteria associated with ophthalmic, otic and nasal infections; type: cell-based, Microbacterium otitidis
From the text: (§2) The concentrations of the antibiotics of formula (I) in the compositions of the present invention will vary depending on the intended use of the compositions (e.g., treatment of existing infections or prevention of post-surgical infections), and the relative antimicrobial activity of the specific antibiotic selected. The antimicrobial activity of antibiotics is generally expressed as the minimum concentration required to inhibit the growth of a specified pathogen. This concentration is also referred to as the “minimum inhibitory concentration” or “MIC”. The term “MIC90” refers to the minimum concentration of antibiotic required to inhibit the growth of ninety percent (90%) of the strains of a species. The concentration of an antibiotic required to totally kill a specified bacteria is referred to as the “minimum bactericidal concentration” or “MBC”.

[1] = test system: H. influenzae/β-lactamase positive; test: as above; type: cell-based
From the text: as §2

[2] = test system: S. epidermidis/methicillin sensitive; test: as above; type: cell-based
From the text: as §2

[3] = test system: S. pneumoniae/penicillin resistant; test: as above; type: cell-based
From the text: as §2

[4] = test system: S. pneumoniae/penicillin sensitive; test: as above; type: cell-based
From the text: as §2

[5] = test system: H influenzae/βlactamase negative; test: as above; type: cell-based
From the text: as §2

[6] = test system: S. aureus/quinolone resistant; test: as above; type: cell-based
From the text: as §2

[7] = test system: S. aureus/methicillin resistant; test: as above; type: cell-based
From the text: as §2

P. aeruginosa = test: as above; type: cell-based
From the text: as §2

[8] = test system: S. aureus/methicillin sensitive; test: as above; type: cell-based
From the text: as §2

[9] = test system: S. epidermidis/methicillin resistant; test: as above; type: cell-based
From the text: as §2

M. alconae = test: as above; type: cell-based, Microbacterium alconae
From the text: as §2

Row | Compound | MIC (Microbacterium otitidis; clinical isolate MCC 10647) | MIC (Microbacterium otitidis; clinical isolate MCC 10810) | MIC (Microbacterium otitidis; clinical isolate MCC 10990) | MIC (Microbacterium otitidis; clinical isolate MCC 11495) | MIC (Microbacterium otitidis; clinical isolate MCC 11676) | MIC (Microbacterium alconae; clinical isolate MCC 11316) | MIC (Microbacterium alconae; clinical isolate MCC 11558) | MIC (Microbacterium alconae; clinical isolate MCC 11639) | MIC (Microbacterium alconae; clinical isolate MCC 11653) | MIC (Microbacterium alconae; clinical isolate MCC 11699) | other results
1 | O=C(N[C@H](CO)[C@H](O)c1ccc([N+](=O)[O-])cc1)C(Cl)Cl [Chloramphenicol] | 1 µg/mL (≈ 3.09 µM) | 1 µg/mL (≈ 3.09 µM) | 1 µg/mL (≈ 3.09 µM) | 1 µg/mL (≈ 3.09 µM) | 1 µg/mL (≈ 3.09 µM) | 16 µg/mL (≈ 49.5 µM) | 16 µg/mL (≈ 49.5 µM) | 16 µg/mL (≈ 49.5 µM) | 16 µg/mL (≈ 49.5 µM) | 16 µg/mL (≈ 49.5 µM) | –
2 | CCC[C@@H]1C[C@@H](C(=O)N[C@@H]([C@H]2O[C@H](SC)[C@H](O)[C@@H](O)[C@H]2O)[C@H](C)Cl)N(C)C1 [Clindamycin] | 0.03 µg/mL (≈ 0.0706 µM) | 0.03 µg/mL (≈ 0.0706 µM) | 0.03 µg/mL (≈ 0.0706 µM) | 0.03 µg/mL (≈ 0.0706 µM) | 0.03 µg/mL (≈ 0.0706 µM) | 4 µg/mL (≈ 9.41 µM) | 4 µg/mL (≈ 9.41 µM) | 4 µg/mL (≈ 9.41 µM) | 4 µg/mL (≈ 9.41 µM) | 4 µg/mL (≈ 9.41 µM) | –
3 | CC[C@H]1OC(=O)[C@H](C)[C@@H](O[C@H]2C[C@@](C)(OC)[C@@H](O)[C@H](C)O2)[C@H](C)[C@@H](O[C@@H]2O[C@H](C)C[C@H](N(C)C)[C@H]2O)[C@](C)(O)C[C@@H](C)C(=O)[C@H](C)[C@@H](O)[C@]1(C)O [Erythromycin] | 0.03 µg/mL (≈ 0.0409 µM) | 0.03 µg/mL (≈ 0.0409 µM) | 0.03 µg/mL (≈ 0.0409 µM) | 0.03 µg/mL (≈ 0.0409 µM) | 0.03 µg/mL (≈ 0.0409 µM) | 1 µg/mL (≈ 1.36 µM) | 2 µg/mL (≈ 2.73 µM) | 2 µg/mL (≈ 2.73 µM) | 0.5 µg/mL (≈ 0.681 µM) | 0.5 µg/mL (≈ 0.681 µM) | –
4 | CC1COc2c(N3CCN(C)CC3)c(F)cc3c(=O)c(C(=O)O)cn1c23 (stereo not shown) [Ofloxacin] | 16 µg/mL (≈ 44.3 µM) | 32 µg/mL (≈ 88.6 µM) | 8 µg/mL (≈ 22.1 µM) | 16 µg/mL (≈ 44.3 µM) | 8 µg/mL (≈ 22.1 µM) | 4 µg/mL (≈ 11.1 µM) | 4 µg/mL (≈ 11.1 µM) | 4 µg/mL (≈ 11.1 µM) | 4 µg/mL (≈ 11.1 µM) | 4 µg/mL (≈ 11.1 µM) | –
5 | Cc1onc(-c2ccccc2)c1C(=O)N[C@@H]1C(=O)N2[C@@H]1SC(C)(C)[C@@H]2C(=O)O [Oxacillin] | 2 µg/mL (≈ 4.98 µM) | 4 µg/mL (≈ 9.96 µM) | 2 µg/mL (≈ 4.98 µM) | 4 µg/mL (≈ 9.96 µM) | 2 µg/mL (≈ 4.98 µM) | 8 µg/mL (≈ 19.9 µM) | 16 µg/mL (≈ 39.9 µM) | 32 µg/mL (≈ 79.7 µM) | 32 µg/mL (≈ 79.7 µM) | 32 µg/mL (≈ 79.7 µM) | –
6 | CN(C)[C@@H]1C(O)=C(C(N)=O)C(=O)[C@@]2(O)C(O)=C3C(=O)c4c(O)cccc4[C@@](C)(O)[C@H]3C[C@@H]12 [Tetracycline] | 1 µg/mL (≈ 2.25 µM) | 1 µg/mL (≈ 2.25 µM) | 1 µg/mL (≈ 2.25 µM) | 1 µg/mL (≈ 2.25 µM) | 1 µg/mL (≈ 2.25 µM) | 1 µg/mL (≈ 2.25 µM) | 1 µg/mL (≈ 2.25 µM) | 1 µg/mL (≈ 2.25 µM) | 1 µg/mL (≈ 2.25 µM) | 1 µg/mL (≈ 2.25 µM) | –
7 | NC[C@H]1O[C@H](O[C@H]2[C@H](O)[C@@H](O[C@H]3O[C@H](CO)[C@@H](O)[C@H](N)[C@H]3O)[C@H](N)C[C@@H]2N)[C@H](N)C[C@@H]1O [Tobramycin] | 32 µg/mL (≈ 68.4 µM) | 4 µg/mL (≈ 8.56 µM) | 4 µg/mL (≈ 8.56 µM) | 4 µg/mL (≈ 8.56 µM) | 16 µg/mL (≈ 34.2 µM) | 16 µg/mL (≈ 34.2 µM) | 16 µg/mL (≈ 34.2 µM) | 16 µg/mL (≈ 34.2 µM) | 16 µg/mL (≈ 34.2 µM) | 16 µg/mL (≈ 34.2 µM) | –
8 | Gentamicin | – | – | – | – | – | – | – | – | – | – | minimum inhibitory concentration (MIC) (Microbacterium otitidis; clinical isolate MCC 10647): 8.0 micrograms per milliliter; minimum inhibitory concentration (MIC) (Microbacterium otitidis; clinical isolate MCC 10810): 4.0 micrograms per milliliter; minimum inhibitory concentration (MIC) (Microbacterium otitidis; clinical isolate MCC 10990): 4.0 micrograms per milliliter; minimum inhibitory concentration (MIC) (Microbacterium otitidis; clinical isolate MCC 11495): 16 micrograms per milliliter; minimum inhibitory concentration (MIC) (Microbacterium otitidis; clinical isolate MCC 11676): 4.0 micrograms per milliliter; minimum inhibitory concentration (MIC) (Microbacterium alconae; clinical isolate MCC 11316): 2.0 micrograms per milliliter; minimum inhibitory concentration (MIC) (Microbacterium alconae; clinical isolate MCC 11558): 2.0 micrograms per milliliter; minimum inhibitory concentration (MIC) (Microbacterium alconae; clinical isolate MCC 11639): 2.0 micrograms per milliliter; minimum inhibitory concentration (MIC) (Microbacterium alconae; clinical isolate MCC 11653): 2.0 micrograms per milliliter; minimum inhibitory concentration (MIC) (Microbacterium alconae; clinical isolate MCC 11699): 2.0 micrograms per milliliter
9 | Moxifloxacin | – | – | – | – | – | – | – | – | – | – | MIC90 (M. otitidis): 2.0 µg/mL; MIC90 [1]: 0.06 µg/mL; MIC90 [2]: 0.25 µg/mL; MIC90 [3]: 0.25 µg/mL; MIC90 [4]: 0.25 µg/mL; MIC90 [5]: 0.06 µg/mL; MIC90 [6]: 4.0 µg/mL; MIC90 [7]: 4.0 µg/mL; MIC90 (P. aeruginosa): 8.0 µg/mL; MIC90 [8]: 0.13 µg/mL; MIC90 [9]: 4.0 µg/mL; MIC90 (M. alconae): 0.25 µg/mL
10 | Neomycin | – | – | – | – | – | – | – | – | – | – | minimum inhibitory concentration (MIC) (Microbacterium otitidis; clinical isolate MCC 10647): 8.0 micrograms per milliliter; minimum inhibitory concentration (MIC) (Microbacterium otitidis; clinical isolate MCC 10810): 2.0 micrograms per milliliter; minimum inhibitory concentration (MIC) (Microbacterium otitidis; clinical isolate MCC 10990): 2.0 micrograms per milliliter; minimum inhibitory concentration (MIC) (Microbacterium otitidis; clinical isolate MCC 11495): 8.0 micrograms per milliliter; minimum inhibitory concentration (MIC) (Microbacterium otitidis; clinical isolate MCC 11676): 2.0 micrograms per milliliter; minimum inhibitory concentration (MIC) (Microbacterium alconae; clinical isolate MCC 11316): 1.0 micrograms per milliliter; minimum inhibitory concentration (MIC) (Microbacterium alconae; clinical isolate MCC 11558): 1.0 micrograms per milliliter; minimum inhibitory concentration (MIC) (Microbacterium alconae; clinical isolate MCC 11639): 1.0 micrograms per milliliter; minimum inhibitory concentration (MIC) (Microbacterium alconae; clinical isolate MCC 11653): 1.0 micrograms per milliliter; minimum inhibitory concentration (MIC) (Microbacterium alconae; clinical isolate MCC 11699): 1.0 micrograms per milliliter
11 | Polymyxin B | – | – | – | – | – | – | – | – | – | – | minimum inhibitory concentration (MIC) (Microbacterium otitidis; clinical isolate MCC 10647): 1040 micrograms per milliliter; minimum inhibitory concentration (MIC) (Microbacterium otitidis; clinical isolate MCC 10810): 260 micrograms per milliliter; minimum inhibitory concentration (MIC) (Microbacterium otitidis; clinical isolate MCC 10990): 260 micrograms per milliliter; minimum inhibitory concentration (MIC) (Microbacterium otitidis; clinical isolate MCC 11495): 1040 micrograms per milliliter; minimum inhibitory concentration (MIC) (Microbacterium otitidis; clinical isolate MCC 11676): 16 micrograms per milliliter; minimum inhibitory concentration (MIC) (Microbacterium alconae; clinical isolate MCC 11316): 32.5 micrograms per milliliter; minimum inhibitory concentration (MIC) (Microbacterium alconae; clinical isolate MCC 11558): 32.5 micrograms per milliliter; minimum inhibitory concentration (MIC) (Microbacterium alconae; clinical isolate MCC 11639): 16 micrograms per milliliter; minimum inhibitory concentration (MIC) (Microbacterium alconae; clinical isolate MCC 11653): 16 micrograms per milliliter; minimum inhibitory concentration (MIC) (Microbacterium alconae; clinical isolate MCC 11699): 16 micrograms per milliliter

Reference: patent US6440964B1, “Compositions and methods for treating ophthalmic and otic infections” (priority 1998, dated 2002)
